Publication PMC8501799, “Constitutive signal bias mediated by the human GHRHR splice variant 1” (Proceedings of the National Academy of Sciences of the …, 2021)

Legend:
[1] = biological target: T1, GHRHR F85A (Homo sapiens, UniProt Q02643, F85A); experiment: cAMP accumulation; type: cell-based; conditions: Table S2, mean ± SEM
T1 construct: expressed in transfected cells; host or cells: HEK293T
Protocol: (§1) GHRH-stimulated cAMP accumulation was measured by a LANCE Ultra cAMP kit (PerkinElmer). Briefly, HEK293T cells (24 h after transfection with SV1 or GHRHR) or prostate cancer cells were digested by 0.2% (wt/vol) EDTA and washed once with Dulbecco’s phosphate-buffered saline (PBS). Cells were then resuspended with stimulation buffer (Hanks’ balanced salt solution [HBSS] supplemented with 5 mM HEPES, 0.5 mM IBMX, and 0.1% [wt/vol] bovine serum albumin [BSA], pH 7.4) to a density of 0.6 million cells per milliliter and added to 384-well white plates (3,000 cells per well). […] The reaction was stopped by adding 5 μL Eu-cAMP tracer and 5 μL ULight-anti-cAMP. After 1 h RT incubation, TR-FRET signals (excitation: 320 nm, emission: 615 and 665 nm) were measured by an Envision plate reader (PerkinElmer). cAMP concentrations were interpolated by a standard curve.
(§2) All functional study data were analyzed using Prism 7 (GraphPad) and presented as means ± SEM from at least three independent experiments. Concentration-response curves were evaluated with a three-parameter logistic equation. The significance was determined with either two-tailed Student’s t test or one-way ANOVA, and P < 0.05 is considered statistically significant.
(§3) Table S2. Effects of residue mutation or truncation in the ECD of GHRHR on GHRH-induced cAMP […]
(§4) Mutant pEC50 Emax (% WT GHRHR) expression ΔLog (τ/KA) […]
(§5) cAMP accumulation data were analyzed using a three-parameter logistic equation to determine pEC50 and Emax values. pEC50 is the negative logarithm of the molar concentration of agonist that induced half the maximal response. Emax for mutants is expressed as a percentage of the WT GHRHR. Data were analyzed by nonlinear regression using the operational model equation to determine t he logR values (logτ/KA, i.e., logarithm of the transduction ratio). τ is the effi cacy value of the agonist and was corrected by cell surface expression of the receptor. KA is dissociation constant. Changes in transduction ratio (ΔlogR) were calculated to determine the relative effectiveness of the mutants. All values are means ± S.E.M. of at le ast three ind ep en dent experiments (n = 3-5) conducted in quadruplicate. Statistical analysis was carried out by comparing the control responses in the WT GHRHR. **, P < 0.01 and ***, P < 0.001, determined by one-way

[2] = biological target: T2, GHRHR Δ82 (Homo sapiens, UniProt Q02643); experiment: cAMP accumulation; type: cell-based; conditions: Table S2, mean ± SEM
T2 construct: expressed in transfected cells; host or cells: HEK293T
Protocol: as §1, §2, §3, §4, §5

[3] = biological target: T3, GHRHR Δ92 (Homo sapiens, UniProt Q02643); experiment: cAMP accumulation; type: cell-based; conditions: Table S2, mean ± SEM
T3 construct: expressed in transfected cells; host or cells: HEK293T
Protocol: as §1, §2, §3, §4, §5

[4] = test system: GHRHR ECD mutants (L34, L62, F82, F85 to alanine); experiment: β-arrestin 1/2 recruitment (BRET), GHRHR ECD alanine mutants; type: cell-based, human; conditions: HEK293T
Protocol: HEK293T cells were seeded at a density of 30,000 cells per well into 96-well culture plates pretreated with poly-D-lysine hydrobromide. After incubation for 24 h to reach 70% to 80% confluence, the cells were transiently transfected with HA-Flag-GHRHR-Rluc8 or HA-Flag-SV1-Rluc8 and β-arrestin 1/2-Venus at a 1:9 mass ratio using lipofectamine 3000 reagent (Invitrogen) and cultured for another 24 h. Thereafter, cells were washed once and incubated for 30 min at 37 °C with HBSS buffer (pH 7.4) supplemented with 0.1% BSA and 10 mM HEPES. Five micromolars of coelenterazine h (YEASEN Biotechnology) was then added and incubated for 5 min in the dark. The bioluminescence resonance energy transfer (BRET) signals were detected with an Envision plate reader by calculating the ratio of emission at 535 nm over emission at 470 nm.

[5] = test system: cell cycle; experiment: Cell cycle analysis (propidium iodide, flow cytometry); type: cell-based; conditions: 1 μM GHRH, 6 h
Protocol: Following the treatment, the cells were digested by trypsin and collected by centrifugation. Cell pellets were washed with PBS and fixed with 70% (vol/vol) ethanol at 4 °C overnight. Cells were again collected by centrifugation and washed twice with PBS. They were then resuspended in PBS containing 0.2% Triton X-100, 50 μg/mL propidium iodide (PI), and […] RNase A and incubated for 30 min at 4 °C in the dark. After incubation, fluorescence intensity was measured with a NovoCyte flow cytometer (Acea Biosciences). Cells were gated for PI staining and cell accumulation in G1, and S and G2/M phases were calculated using the NovoExpress software.

[6] = HEK-293T, HEK293T, n = 3-5 in quadruplicate
[7] = operational model, τ corrected by cell surface expression, relative to WT GHRHR

T1 sequence (Q02643 23-423 F85A): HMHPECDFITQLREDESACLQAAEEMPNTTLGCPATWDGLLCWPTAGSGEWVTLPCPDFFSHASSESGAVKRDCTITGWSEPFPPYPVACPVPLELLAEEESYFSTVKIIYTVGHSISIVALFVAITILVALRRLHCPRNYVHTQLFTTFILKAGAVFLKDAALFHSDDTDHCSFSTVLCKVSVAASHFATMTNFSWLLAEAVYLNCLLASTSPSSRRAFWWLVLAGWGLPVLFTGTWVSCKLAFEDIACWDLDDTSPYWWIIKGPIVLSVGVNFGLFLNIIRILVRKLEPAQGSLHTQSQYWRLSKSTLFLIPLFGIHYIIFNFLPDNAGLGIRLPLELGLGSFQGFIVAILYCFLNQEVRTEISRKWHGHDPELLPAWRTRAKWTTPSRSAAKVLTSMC
T3 sequence (Q02643 93-423 limits assumed, stated change not applied): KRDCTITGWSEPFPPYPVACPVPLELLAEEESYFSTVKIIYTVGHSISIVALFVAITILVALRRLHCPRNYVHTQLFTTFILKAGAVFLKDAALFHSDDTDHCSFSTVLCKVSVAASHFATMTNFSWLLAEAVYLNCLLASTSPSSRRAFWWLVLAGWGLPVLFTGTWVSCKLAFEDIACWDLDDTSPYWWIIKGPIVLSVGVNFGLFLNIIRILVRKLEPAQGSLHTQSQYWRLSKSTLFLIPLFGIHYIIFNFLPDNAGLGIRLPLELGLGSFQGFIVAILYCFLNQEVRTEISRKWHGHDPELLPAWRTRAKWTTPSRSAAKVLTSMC
T2 sequence (Q02643 83-423 limits assumed, stated change not applied): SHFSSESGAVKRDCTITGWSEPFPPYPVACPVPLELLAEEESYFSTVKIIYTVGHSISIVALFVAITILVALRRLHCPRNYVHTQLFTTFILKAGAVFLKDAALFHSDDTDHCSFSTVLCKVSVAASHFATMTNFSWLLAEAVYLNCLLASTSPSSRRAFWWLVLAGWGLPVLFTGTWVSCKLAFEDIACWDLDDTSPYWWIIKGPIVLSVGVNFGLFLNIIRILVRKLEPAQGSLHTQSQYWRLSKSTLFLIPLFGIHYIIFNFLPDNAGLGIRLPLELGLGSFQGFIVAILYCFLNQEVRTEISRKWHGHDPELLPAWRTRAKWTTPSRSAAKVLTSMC

## CC[C@H](C)[C@H](NC(=O)[C@H](C)NC(=O)[C@H](CC(=O)O)NC(=O)[C@H](C)NC(=O)[C@@H](N)Cc1ccc(O)cc1)C(=O)N[C@@H](Cc1ccccc1)C(=O)N[C@H](C(=O)N[C@@H](CC(N)=O)C(=O)N[C@@H](CO)C(=O)N[C@@H](Cc1ccc(O)cc1)C(=O)N[C@@H](CCCNC(=N)N)C(=O)N[C@@H](CCCCN)C(=O)N[C@H](C(=O)N[C@@H](CC(C)C)C(=O)NCC(=O)N[C@@H](CCC(N)=O)C(=O)N[C@@H](CC(C)C)C(=O)N[C@@H](CO)C(=O)N[C@@H](C)C(=O)N[C@@H](CCCNC(=N)N)C(=O)N[C@@H](CCCCN)C(=O)N[C@@H](CC(C)C)C(=O)N[C@@H](CC(C)C)C(=O)N[C@@H](CCC(N)=O)C(=O)N[C@@H](CC(=O)O)C(=O)N[C@H](C(=O)N[C@@H](CCSC)C(=O)N[C@@H](CO)C(=O)N[C@@H](CCCNC(=N)N)C(=O)N[C@@H](CCC(N)=O)C(=O)N[C@@H](CCC(N)=O)C(=O)NCC(=O)N[C@@H](CCC(=O)O)C(=O)N[C@@H](CO)C(=O)N[C@@H](CC(N)=O)C(=O)N[C@@H](CCC(N)=O)C(=O)N[C@@H](CCC(=O)O)C(=O)N[C@@H](CCCNC(=N)N)C(=O)NCC(=O)N[C@@H](C)C(=O)N[C@@H](CCCNC(=N)N)C(=O)N[C@@H](C)C(=O)N[C@@H](CCCNC(=N)N)C(=O)N[C@@H](CC(C)C)C(N)=O)[C@@H](C)CC)C(C)C)[C@@H](C)O [GHRH, growth hormone–releasing hormone]
[1]; [6]
  Emax: 100 ± 1.69%
[1]; [7]
  ΔLog (τ/KA): -0.27 ± 0.04
[2]; [6]
  Emax: 104 ± 2.51%
[2]; [7]
  ΔLog (τ/KA): -3.14 ± 0.03
[3]; [6]
  Emax: 106 ± 2.38%
[3]; [7]
  ΔLog (τ/KA): -3.78 ± 0.03
[4]; F82A and F85A mutants of GHRHR
  β-arrestin 1/2 recruitments: enhanced β-arrestin 1/2 recruitments
[4]; any or all of four ECD residues (L34, L62, F82, F85) to alanine
  β-arrestin 1/2 recruitments: enhanced β-arrestin 1/2 recruitments
[5]; decreased from 46.6
  cells in G1 phase: 32.8%
[5]; increased from 22.8
  cells in G2/M phase: 37.7%
